Reference: patent publication US20010012854A1, “MULTICATALYTIC PROTEASE INHIBITORS FOR USE AS ANTI-TUMOR AGENTS” (priority 1997, published 2001)

Columns and labels:
[1] = test system: Bcl-2-overexpressing Jurkat cells; assay: Apoptosis in Bcl-2-overexpressing Jurkat cells (nuclear staining, western blot); type: cell-based, human
Experimental: b. Cell culture. Human Jurkat T and HL-60 cells were grown in RPMI 1640 (Life Technologies, Inc.) supplemented with 10% fetal calf serum (Sigma), 100 units/ml of penicillin, 100 μg/ml of streptomycin and 2mM L-glutamine (growth medium). Jurkat T. cells overexpressing the Bcl-2 oncoprotein or vector alone (provided by Dr. D. Johnson, University of Pittsburgh, Pa.) were grown in the same growth medium with […] G418. Human cancer cell lines of breast (MCF-7, MDA-MB-231), prostate (DU145, PC3) and osteosarcoma (U2-OS), obtained from American Type Culture Collection (ATCC. Rockville, Md.)), were also grown in the RPMI growth medium. Human oral (SCC-25; from ATCC) and brain (SNB-19; Welch, W. C., et al. In Vitro Cell. Dev. Biol., 31:610-616, 1995) cancer cell lines, and normal (WI-38) and SV40-transformed human fibroblasts (WI-38 VA-13; from ATCC) were grown in DMEM medium containing 10% fetal calf serum, penicillin, streptomycin and L-glutamine.
(§1) d. Flow cytometry nuclear staining and DNA fragmentation assays. DNA content analysis using flow cytometry was performed as described previously (Nicoletti, I., et al. J. Immunol. Methods 139:271-279, 1992). To assay nuclear morphology, cells were washed with PBS, fixed with 70% ethanol for 1 h, and stained with Hoechst 33258 (1 mM) for 30 min. The nuclear morphology of cells was visualized by fluorescence microscope (OLYMPUS BH2). DNA fragmentation was assayed as described previously (Grant, S., et al. Cancer Res. 52:6270-6278, 1992).
(§2) e. Whole cell extracts and western blot assay. To prepare whole cell extracts, cells were washed with PBS, and homogenized in lysis buffer (50 mM Tris, pH 8.0, 5 mM EDTA, 150 mM NaCl, 0.5% Nonidet P-40, 0.5 mM PMSF and 0.5 mM dithiothreitol). Following 30 min rocking at 4° C., the lysates were centrifuged and the supernatants were collected as whole cell extracts. The protein samples were then analyzed by sodium dodecyl sulfate-6% polyacrylamide gel electrophoresis (20-60 μg protein per lane) followed by the enhanced chemiluminescence Western blot assay using specific antibodies to CPP32, PARP, p21, p27 or RB.
It has been shown that overexpression of Bcl-2 oncoprotein inhibits apoptosis in many cell systems (Miura, M., et al., J. Cell 75: 653-660, 1993). Bcl-2 expression in human Jurkat T cells for inhibition of Compound A-induced apoptosis was investigated.

[2] = test system: glioblastoma cell line SNB-19; assay: Detachment and apoptosis in SNB-19 cells; type: cell-based, human
Experimental: (§3) c. Treatment of cells with MCP inhibitor. Cells were treated with a specified MCP Inhibitor, a standard anticancer agent (etoposide or cisplatin), or DMSO (vehicle). During this process, morphological changes and cellular detachment (for attached cell lines) were monitored. At each time point, cells were harvested, and used for measurement of apoptosis and other biochemical events. In Example 1, infra, involving YVAD-CMK, Compound A was first added to Jurkat T cells. This was followed immediately by dividing the cells into multiple tissue culture flasks. YVAD-CMK was then added to an indicated concentration.
as §1

[3] = test system: human prostate cancer DU145 cells; assay: Detachment and apoptotic nuclear changes in DU145 cells; type: cell-based; conditions: DU145, 16 h
Experimental: as §3, §1
Similar to PC-3, about half of human prostate cancer DU145 cells became detached after exposure to Compound A for 16 h.

[4] = test system: p21 and p27 in normal WI-38 fibroblasts; assay: Western blot of p21 and p27 levels in normal WI-38 fibroblasts; type: cell-based, human; conditions: normal WI-38, 10 μM, 22 hours
Experimental: as §2
The accumulation of p21 and p27 following treatment with Compound A was also evaluated in SV-40 transformed and normal WI-38 fibroblasts.

How did the “Effect of Bcl-2 overexpression on induced PARP cleavage and p112-115/RB production” value ([1]; 15 μM) turn out when CC(C)C[C@@H](C=O)NC(=O)[C@@H](CCCNC(=N)N[N+](=O)[O-])NC(=O)C(CCCCCCCCN1C(=O)c2ccccc2C1=O)C1CCCC1 (stereo partly shown) [Compound A] was run?
The value was “failed to block cleavage of PARP and production of p112-115/RB”.

And the “Effect of Bcl-2 expression on induced apoptotic nuclear changes” value ([1]; 15 μM, 8 h)?
The value was “did not inhibit the apoptotic nuclear changes”.

What about the “Cells exhibiting apoptosis-specific nuclear morphology” value ([1]; Bcl-2-overexpressing Jurkat, 30 μM, 3.5 h) of the same compound?
The value was ~100%.

And the “Induction of cellular detachment and apoptosis” value [2]?
The value was “induced cellular detachment and apoptosis”.

And the Detached cells [3]?
The Detached cells was “about half”.

And the Nuclear morphology [3]?
Its Nuclear morphology is “Almost all the detached and even the attached DU145 cells exhibited apoptosis-specific nuclear morphology”.

What about the p27 levels [4] of the same compound?
The p27 levels was “increased only slightly”.
